One test deals with ovarian cancers. The conditions noted are these: Becket et al., DDT 1996, 1, 16; cited from earlier work.
The next test concerns B16F10 melanoma. The conditions noted are these: BDF1 mice, B16F10 cells i.v. on day 1; compound i.v. at 100 mg/kg from day 0 to day 3; metastases counted on day 11. As to the method: Inhibition of the Formation of Metastases in the Mouse
The anti-tumour activity of the compounds of the invention was studied in the model of B16F10 melanoma grafted by the i.v. route. […] The parameter measured is thus the number of pulmonary metastases.
B16F1O tumour cells are injected by the i.v. route into BDF1 mice on day 1 (1 10^5 cells per mouse). The compounds are administered by the i.v. route at 100 mg/kg from day 0 to day 3 (7 animals per experimental group). On day 11, the animals are sacrificed and the pulmonary metastases are counted. The results are expressed as % inhibition compared with the control animals.

Test [1] deals with rabbit cartilage collagen matrix degradation induced by IL-1β. To be noted: read-out: IC50, collagen degradation (OH-proline release), IL-1β 10 ng/ml and plasmin 0.1 U/ml, 2 days. As to the method:
The compounds of the invention were studied using a rabbit cartilage collagen matrix degradation model with degradation being induced by IL-1β. The tissue is placed in contact with IL -1β (10 ng/ml) and plasmin (0.1 U/ml) for 2 days. The fraction of OH-proline salted out by the tissue is evaluated by colorimetric measurement (GRANT R. A. Estimation of OH-proline by the autoanalyzer, J. Clin. Path. 1964, 17 685). The compounds of the invention were studied after the addition of various concentrations to the culture medium during the two days of the test.

As for `CNC(=O)[C@H](Cc1ccccc1)NC(=O)[C@H](CC(C)C)[C@H](CSc1cccs1)C(=O)NO` [BB94], the “anti-tumour activity in clinical use” value in the test on ovarian cancers is “active in ovarian cancers”.
Consider `O=C(O)[C@H]1[C@H](Cn2nnc3ccccc3c2=O)CC[C@@H]1Sc1ccc(-c2ccc(Cl)cc2)cc1` (mixture of isomers) [Example 49, (1R,2S,5R)- and (1S,2R,5S)-2-[(4′-chloro-4-biphenyl)sulphanyl]-5-[(4-oxo-3,4-dihydro-1,2,3-benzotriazin-3-yl)methyl]-1-cyclopentanecarboxylic acid], for which the “inhibition of the formation of pulmonary metastases, % inhibition compared with the control animals” value in the test with B16F10 melanoma was 73%.
For the molecule `O=C(NO)C(CCn1nnc2ccccc2c1=O)CSCCc1ccc(-c2ccc(Cl)cc2)cc1` (stereo not shown) [Example 93, 2-{[2-(4′-Chloro-4-biphenyl)ethyl]sulphanylmethyl}-N-hydroxy-4-(4-oxo-3,4-dihydro-1,2,3-benzotriazin-3-yl)butyramide], the “inhibition of the formation of pulmonary metastases, % inhibition compared with the control animals” value in the test with B16F10 melanoma was 75%. Besides, the IC50 in test [1] stood at 1900 nM.
